These results are taken from patent US6956039B2, “Nitrogenous heterocylic compounds” (Millennium Pharmaceuticals, Inc., priority 2000, dated 2005).

Test [1] concerns the target T1, β-PDGFR (Homo sapiens, UniProt P09619). The test can be described thus: MG63 phosphorylation assay (endogenous β-PDGFR phosphorylation, PDGF-BB stimulation with human plasma). The settings on record: MG63 human osteosarcoma cells; PDGF-BB stimulation in presence of 45% human plasma; PDGF receptor phosphorylation; read-out: MG63 w/human plasma IC50. Format: cell-based. Also on record: This assay is for measuring endogenous β-PDGFR phosphorylation in MG63 cells; endogenous in cells; host or cells: MG63 human osteosarcoma cells (ATCC).
Method: For the phosphorylation assay according to the invention, HR5 cells were grown to confluency in 96-well microtiter plates under standard tissue culture conditions, followed by serum-starvation for 16 hours. Quiescent cells were incubated at 37° C. without or with increasing concentrations of the test compound (0.01-30 uM) for 30 minutes followed by the addition of 8 nM PDGF BB for 10 minutes. Cells were lysed in 100 mM Tris, pH7.5, 750 mM NaCl, 0.5% Triton X-100, 10 mM sodium pyrophosphate, 50 mM NaF, 10 ug/ml aprotinin, 10 ug/ml leupeptin, 1 mM phenylmethylsulfonyl fluoride, 1 mM sodium vanadate, and the lysate was cleared by centrifugation at 15,000×g for 5 minutes. Clarified lysates were transferred into a second microtiter plate in which the wells were previously coated with 500 ng/well of 1B5B11 anti-β-PDGFR mAb, and then incubated for two hours at room temperature. After washing three times with binding buffer (0.3% gelatin, 25 mM Hepes pH 7.5, 100 mM NaCl, 0.01% Tween-20), 250 ng/ml of rabbit polyclonal anti-phosphotyrosine antibody (Transduction Laboratory) was added and plates were incubated at 37° C. for 60 minutes. […] Wells were washed prior to adding ABTS (Sigma), and the rate of substrate formation was monitored at 650 nm. […]

Test [2] concerns the target T1, β-PDGFR. The test can be described thus: HR5 phosphorylation assay (CHO cells overexpressing human β-PDGFR). Format: cell-based. Also on record: host or cells: CHO cells (HR5 line). The settings on record: 8 nM PDGF BB for 10 minutes, PDGF receptor phosphorylation.
Method: The HR5 cell line is a cell line of CHO cells engineered to overexpress human β-PDGFR, which cell line is available from the ATCC. The expression level of β-PDGFR in HR5 cells is around 5×10^4 receptor per cell. For the phosphorylation assay according to the invention, HR5 cells were grown to confluency in 96-well microtiter plates under standard tissue culture conditions, followed by serum-starvation for 16 hours. Quiescent cells were incubated at 37° C. without or with increasing concentrations of the test compound (0.01-30 uM) for 30 minutes followed by the addition of 8 nM PDGF BB for 10 minutes. Cells were lysed in 100 mM Tris, pH7.5, 750 mM NaCl, 0.5% Triton X-100, 10 mM sodium pyrophosphate, 50 mM NaF, 10 ug/ml aprotinin, 10 ug/ml leupeptin, 1 mM phenylmethylsulfonyl fluoride, 1 mM sodium vanadate, and the lysate was cleared by centrifugation at 15,000×g for 5 minutes. Clarified lysates were transferred into a second microtiter plate in which the wells were previously coated with 500 ng/well of 1B5B11 anti-β-PDGFR mAb, and then incubated for two hours at room temperature. […] Wells were washed prior to adding ABTS (Sigma), and the rate of substrate formation was monitored at 650 nm.

The structures appear in SMILES notation.

T1 sequence (P09619 33-1106): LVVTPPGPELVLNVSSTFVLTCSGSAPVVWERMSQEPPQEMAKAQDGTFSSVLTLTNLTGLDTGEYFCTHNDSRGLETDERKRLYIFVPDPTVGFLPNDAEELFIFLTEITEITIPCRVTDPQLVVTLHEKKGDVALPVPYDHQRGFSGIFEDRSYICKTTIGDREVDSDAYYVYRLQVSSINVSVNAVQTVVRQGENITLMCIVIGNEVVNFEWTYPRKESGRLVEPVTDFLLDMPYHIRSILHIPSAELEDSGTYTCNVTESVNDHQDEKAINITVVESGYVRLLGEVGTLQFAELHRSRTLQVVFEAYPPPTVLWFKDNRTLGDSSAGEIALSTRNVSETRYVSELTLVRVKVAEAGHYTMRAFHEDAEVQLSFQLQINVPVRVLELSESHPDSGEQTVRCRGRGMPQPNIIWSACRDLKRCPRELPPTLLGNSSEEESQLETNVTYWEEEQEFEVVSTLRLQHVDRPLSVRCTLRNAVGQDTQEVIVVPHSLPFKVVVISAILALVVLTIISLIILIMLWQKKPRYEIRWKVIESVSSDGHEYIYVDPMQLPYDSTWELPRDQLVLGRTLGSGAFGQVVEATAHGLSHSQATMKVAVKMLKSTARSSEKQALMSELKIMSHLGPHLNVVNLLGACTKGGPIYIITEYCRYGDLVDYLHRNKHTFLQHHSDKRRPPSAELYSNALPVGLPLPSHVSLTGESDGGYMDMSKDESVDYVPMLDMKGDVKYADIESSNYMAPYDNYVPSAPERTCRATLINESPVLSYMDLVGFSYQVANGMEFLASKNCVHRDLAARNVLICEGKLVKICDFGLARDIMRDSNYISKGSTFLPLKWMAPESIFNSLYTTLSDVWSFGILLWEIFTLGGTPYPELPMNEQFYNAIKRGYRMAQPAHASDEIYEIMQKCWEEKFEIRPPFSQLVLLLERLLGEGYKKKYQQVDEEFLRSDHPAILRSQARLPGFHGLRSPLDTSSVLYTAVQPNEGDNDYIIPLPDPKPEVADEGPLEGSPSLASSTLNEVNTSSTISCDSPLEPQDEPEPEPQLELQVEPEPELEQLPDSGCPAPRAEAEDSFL

`c1nc(N2CCNCC2)c2ccc(OCCN3CCCCC3)cc2n1` [Example 1, 4-piperazinyl-7-(2-piperidylethoxy)quinazoline]: the values for the IC50 in test [1] and in test [2] were 103 nM and 150 nM, respectively.
